Molecular target: T1, rShGST (recombinant Schistoma japonicum GST) (Schistosoma japonicum, UniProt P08515)
T1 construct: GST expressed from the empty vector pGEX-6P-1 (vector-encoded C-terminal linker), E. coli BL21(DE3), Glutathione Sepharose
Assay: GST activity with CDNB, absorbance at […] nm
Type: biochemical
Settings: 100 µM inhibitor; 1 mM CDNB, 1 mM GSH, 0.1 M phosphate pH 6.5

T1 sequence (P08515 2-218): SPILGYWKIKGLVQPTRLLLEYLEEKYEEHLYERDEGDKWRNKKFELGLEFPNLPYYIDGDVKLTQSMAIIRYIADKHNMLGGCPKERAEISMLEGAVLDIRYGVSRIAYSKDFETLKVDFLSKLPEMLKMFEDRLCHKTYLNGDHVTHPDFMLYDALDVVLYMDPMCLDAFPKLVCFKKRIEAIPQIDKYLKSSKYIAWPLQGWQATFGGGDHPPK

Structure (SMILES): C=C(CC)C(=O)c1ccc(OCC(=O)O)c(Cl)c1Cl [ethacrynic acid]
- GST activity, % of control at 100 μM: Ethacrynic acid strongly inhibited the GST activity of recombinant Schistoma japonicum GST (rShGST)

From paper PMC5535166 (Toxins, 2017)
